Some test systems named below: K-562 leukemia; ACHN renal; MDA-MB-435; HS 578T breast; MOLT-4 leukemia; NCI/ADR-RES ovarian; UACC-62 melanoma; MCF7 breast; PC-3 prostate; UACC-257 melanoma.
Holding throughout (assay): inhibition of tumour cell growth, NCI panel, 48 h

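A five-concentration, 48-hour dose response in 96-well plates underlies each endpoint, interpolated linearly between surrounding concentrations. GI50 marks 50% less growth. TGI: concentration producing complete growth inhibition.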

Turning to `COc1ccc(-n2cc(-c3cc(OC)c(OC)c(OC)c3)nc2SCc2cccc(C#N)c2)cc1OC`, the GI50 in the assay with K-562 leukemia is 56.9 µM; with ACHN renal, greater than 100 µM; with MDA-MB-435, 90.5 µM; in the assay on HS 578T breast, 62.2 µM; in the assay on MOLT-4 leukemia, 51.7 µM; in the assay with NCI/ADR-RES ovarian it was greater than 100 µM. The GI50 with UACC-62 melanoma was greater than 100 µM; in the assay with MCF7 breast, 66.2 µM; in the assay with PC-3 prostate it was 59.8 µM. Besides, the TGI with K-562 leukemia, in the assay on ACHN renal, in the assay on MDA-MB-435, in the assay with HS 578T breast, in the assay with MOLT-4 leukemia and in the assay with NCI/ADR-RES ovarian was greater than 100 µM in each case. Further, the TGI with UACC-62 melanoma, in the assay with MCF7 breast and in the assay with PC-3 prostate was greater than 100 µM in each case.
On to `O=S(=O)(F)Cc1ccccc1`, for which the TGI with K-562 leukemia, in the assay on UACC-257 melanoma, with ACHN renal, in the assay with MDA-MB-435, in the assay with MOLT-4 leukemia and with NCI/ADR-RES ovarian was greater than 100 µM each time. Besides, the TGI with UACC-62 melanoma, in the assay with MCF7 breast and with PC-3 prostate was greater than 100 µM throughout.
Regarding `COC1CCCc2c(OC(C)=O)ccc(OC(C)=O)c21` (stereo not drawn), the TGI with K-562 leukemia, in the assay with ACHN renal, with MOLT-4 leukemia and in the assay on UACC-62 melanoma was greater than 100 µM throughout.
In the case of `CCN(Cc1ccc(Cl)c(Cl)c1)c1ccc2nc(N)nc(N)c2c1C`, the GI50 in the assay with UACC-257 melanoma is 1.25 µM; with ACHN renal, less than 0.01 µM; in the assay with MDA-MB-435 it was less than 0.01 µM; in the assay on NCI/ADR-RES ovarian, 0.0104 µM; in the assay on MCF7 breast, 0.0189 µM; in the assay on PC-3 prostate, 0.0284 µM. Also, the TGI in the assay on UACC-257 melanoma is 2.72 µM; in the assay with ACHN renal it was 1.78 µM; with MDA-MB-435 it was 1.49 µM; in the assay with NCI/ADR-RES ovarian it was 1.63 µM; in the assay on MCF7 breast, 1.52 µM; in the assay with PC-3 prostate, 3.16 µM.
Consider `Cn1cc(-c2ccc3c4ccccc4n(C)c3c2)c2ccccc21`, for which the TGI in the assay with K-562 leukemia, in the assay on UACC-257 melanoma, with ACHN renal, with MOLT-4 leukemia and in the assay on UACC-62 melanoma was greater than 100 µM each time.
Consider `Nc1[nH]nc(Nc2ccccc2)c1-c1nc2ccccc2s1`, for which the GI50 with K-562 leukemia was 1.88 µM; in the assay on ACHN renal it was 2.08 µM; with MDA-MB-435 it was 1.94 µM; in the assay with HS 578T breast, 2.53 µM; in the assay with MOLT-4 leukemia, 0.683 µM; with NCI/ADR-RES ovarian it was 2.11 µM. For the same molecule, the values for the GI50 with UACC-62 melanoma, in the assay with MCF7 breast and in the assay on PC-3 prostate were 1.4 µM, 2.26 µM and 1.58 µM, respectively. In addition, the TGI amounted to 7.81 µM in the assay with K-562 leukemia; 6.27 µM in the assay on ACHN renal; 4.89 µM in the assay with MDA-MB-435; 9.86 µM with HS 578T breast; 7.81 µM with MOLT-4 leukemia; 6.64 µM in the assay with NCI/ADR-RES ovarian. The results for the TGI in the assay with UACC-62 melanoma, in the assay on MCF7 breast and in the assay with PC-3 prostate were 2.96 µM, 8.68 µM and 3.39 µM, respectively.
For `N.N.N.N.N#N.N#N.[Cl-].[Os+6]`, in the assay on UACC-62 melanoma, the GI50 is greater than 100 µM and the TGI was greater than 100 µM.
As for `CNc1c2ccccc2nc2occ(Cl)c12`, the GI50 with K-562 leukemia is 26.4 µM; with ACHN renal, 24 µM; in the assay on MDA-MB-435, 17.2 µM; in the assay on HS 578T breast, 20.9 µM; in the assay on MOLT-4 leukemia, 13.3 µM; in the assay with NCI/ADR-RES ovarian, 30.1 µM. The results for the GI50 in the assay with UACC-62 melanoma, in the assay on MCF7 breast and with PC-3 prostate were 33.3 µM, 32.3 µM and 26.5 µM, respectively. The TGI is greater than 100 µM in the assay with K-562 leukemia; 70.5 µM with ACHN renal; 79.9 µM with MDA-MB-435; 79.3 µM in the assay with HS 578T breast; 64.6 µM with MOLT-4 leukemia; greater than 100 µM in the assay on NCI/ADR-RES ovarian. In addition, the TGI with UACC-62 melanoma, with MCF7 breast and with PC-3 prostate was greater than 100 µM in each case.
`O=C(n1c2ccccc2c2n[nH]c(=S)nc21)C(F)(F)F`: the TGI in the assay with K-562 leukemia, with MOLT-4 leukemia and in the assay on UACC-62 melanoma was greater than 100 µM throughout.
In the case of `CC(C)(C)C1=CC(=N/N=c2\scc(-c3ccccc3)n2Cc2ccccc2)C=C(C(C)(C)C)C1=O`, the TGI in the assay with K-562 leukemia, with UACC-257 melanoma, in the assay on ACHN renal, in the assay with MOLT-4 leukemia and in the assay on UACC-62 melanoma was greater than 100 µM each time.
Take `CCN(CC)CCC(=O)/C=C/c1ccc(Cl)c(Cl)c1`: the TGI in the assay with K-562 leukemia is greater than 10 µM; in the assay on UACC-257 melanoma, greater than 10 µM; with ACHN renal, greater than 10 µM; in the assay on MDA-MB-435, greater than 10 µM; in the assay with MOLT-4 leukemia, greater than 10 µM; in the assay on NCI/ADR-RES ovarian it was 4.66 µM. Moreover, the TGI in the assay with MCF7 breast and in the assay on PC-3 prostate was greater than 10 µM throughout.
With `Cc1c(C)c2cc3c(=O)c(CCl)coc3c(C)c2oc1=O`, the TGI in the assay on K-562 leukemia, with UACC-257 melanoma, with ACHN renal, in the assay with MOLT-4 leukemia and in the assay on UACC-62 melanoma was greater than 100 µM in each case.
Turning to `COCN1COCN(C)C1=O`, the TGI in the assay on K-562 leukemia, in the assay on UACC-257 melanoma, in the assay on ACHN renal and in the assay on UACC-62 melanoma was greater than 100 µM in each case.
As to `CCOC(=O)c1ccc(N=Cc2ccc(N(CCC#N)S(=O)(=O)c3ccccc3)cc2C)cc1`, the TGI in the assay on K-562 leukemia, in the assay on UACC-257 melanoma, in the assay with MOLT-4 leukemia and with UACC-62 melanoma was greater than 100 µM each time.
`O=c1[nH]c2nc3ccccc3c(=O)n2nc1Cc1ccccc1`: the TGI in the assay on K-562 leukemia, with UACC-257 melanoma, in the assay on ACHN renal, in the assay on MOLT-4 leukemia and in the assay with UACC-62 melanoma was greater than 100 µM each time.
With `CC(=O)/C=C1\CC(=O)N(C)c2ccccc2N1`, the TGI in the assay with K-562 leukemia, in the assay with MOLT-4 leukemia and with UACC-62 melanoma was greater than 100 µM each time.

The values above are taken from PubChem BioAssay (NCI).
